Reference: patent US7368578B2, “Five-membered heterocyclic compounds” (Takeda Pharmaceutical Company Limited, priority 2002, dated 2008)
Structures can show the parent of a compound that is named as a salt.

SMILES | melting point
CCOP(=O)(/C=C/c1nc(-c2ccccc2)oc1COc1ccc(OCc2nc(-c3ccccc3)oc2C)cc1)OCC | 124 to 125 °C
CCOP(=O)(CCc1cc(OCc2ccc(OCc3nc(-c4ccco4)oc3C)c(OC)c2)nn1-c1ccccc1)OCC | 76 to 77 °C
CCOP(=O)(/C=C/c1cn(-c2ccccc2)nc1OCc1ccc(OCc2nc(-c3ccccc3)oc2C)cc1)OCC | 109 to 110 °C
CCOP(=O)(/C=C/c1cn(C)nc1OCc1ccc(OCc2nc(-c3ccco3)oc2C)c(OC)c1)OCC | 72 to 73 °C
CCOP(=O)(/C=C/c1cn(CC)nc1OCc1ccc(OCc2nc(-c3ccco3)oc2C)c(OC)c1)OCC | 82 to 84 °C
CCOP(=O)(/C=C/c1cn(CCO)nc1OCc1ccc(OCc2nc(-c3ccco3)oc2C)c(OC)c1)OCC | 95 to 96 °C
CCOP(=O)(/C=C/c1cn(-c2ccccc2)nc1OCc1ccc(OCc2nc(N3CCCCC3)sc2C)c(OC)c1)OCC | 95 to 96 °C
CCOP(=O)(/C=C/c1cn(-c2ccccc2)nc1OCc1ccc(OCc2nc(-c3ccc(C(N)=O)cc3)oc2C)c(OC)c1)OCC | 146 to 148 °C
CCOP(=O)(/C=C/c1cn(-c2ccccc2)nc1OCc1ccc(OCc2nc(-c3ccccc3)sc2C)c(OC)c1)OCC | 110 to 111 °C
CCOP(=O)(/C=C/c1cn(-c2ccccc2)nc1OCc1ccc(OCc2nc(-c3ccc(C(=O)OC)cc3)oc2C)c(OC)c1)OCC | 129 to 130 °C
CCOP(=O)(/C=C/c1cn(-c2ccccc2)nc1OCc1ccc(OCc2sc(-c3ccccc3)nc2C)c(OC)c1)OCC | 113 to 114 °C
CCOP(=O)(/C=C/c1cn(-c2ccccc2)nc1OCc1ccc(OCc2cn(-c3ccccn3)nc2C)c(OC)c1)OCC | 103 to 104 °C
CCOP(=O)(/C=C/c1cn(-c2ccccc2)nc1OCc1ccc(OCc2nc(-c3ccccc3)cn2C)c(OC)c1)OCC | 144 to 145 °C
CCOP(=O)(/C=C/c1cn(-c2ccccc2)nc1OCc1ccc(OCc2nc(N3CCOCC3)sc2C)c(OC)c1)OCC | 88 to 90 °C
CCOC(=O)c1ccc(-c2nc(COc3ccc(COc4nn(-c5ccccc5)cc4/C=C/P(=O)(OCC)OCC)cc3OC)c(C)o2)o1 | 129 to 130 °C
CCOP(=O)(/C=C/c1cn(-c2ccccc2)nc1OCc1ccc(OCc2nc(-c3ccc(OC)c(C(=O)OC)c3)oc2C)c(OC)c1)OCC | 144 to 145 °C
CCOP(=O)(/C=C/c1cnc(-c2ccccc2)nc1OCc1ccc(OCc2nc(-c3ccco3)oc2C)c(OC)c1)OCC | 103 to 104 °C
CCOP(=O)(/C=C\c1cnc(-c2ccccc2)nc1OCc1ccc(OCc2nc(-c3ccco3)oc2C)c(OC)c1)OCC | 154 to 155 °C
CCOC(=O)/C=C/c1nc(COc2ccc(COc3nn(-c4ccccc4)cc3/C=C/P(=O)(OCC)OCC)cc2OC)c(C)o1 | 130 to 131 °C
CCOP(=O)(/C=C/c1cn(-c2ccccc2)nc1OCc1ccc(OCc2nc(-c3ccc(C)c(C(=O)OC)c3)oc2C)c(OC)c1)OCC | 121 to 122 °C
CCOP(=O)(/C=C/c1cn(-c2ccccc2)nc1OCc1ccc(OCc2nc(-c3ccc(C)c(C(=O)O)c3)oc2CC)c(OC)c1)OCC | 165 to 166 °C
CCOP(=O)(/C=C/c1cn(-c2ccccc2)nc1OCc1ccc(OCc2nc(N3CCC(C(=O)O)CC3)sc2C)c(OC)c1)OCC | 159 to 160 °C
CCOC(=O)c1ccc(-c2nc(COc3ccc(COc4nn(-c5ccccc5)cc4/C=C/P(=O)(OCC)OCC)cc3OC)c(C)o2)s1 | 114 to 115 °C
CCOP(=O)(/C=C/c1cn(-c2ccccc2)nc1OCc1ccc(OCc2nc(-c3cccc(C#N)c3)oc2C)c(OC)c1)OCC | 147 to 148 °C
CCOP(=O)(/C=C\c1cn(-c2ccccc2)nc1OCc1ccc(OCc2nc(-c3cccc(C(=O)OC)c3)oc2C)c(OC)c1)OCC | 112 to 113 °C
CCOP(=O)(/C=C/c1cn(-c2ccccc2)nc1OCc1ccc(OCc2nc(-c3ccc(CC(=O)[O-])cc3)oc2C)c(OC)c1)OCC.[Na+] | 109 to 110 °C
COc1cc(COc2nn(-c3ccccc3)cc2C(C[N+](=O)[O-])C[N+](=O)[O-])ccc1OCc1nc(-c2ccco2)oc1C | 126 to 127 °C
COc1cc(COc2nn(-c3ccccc3)cc2C=O)ccc1OCc1nc(-c2cccc(OS(C)(=O)=O)c2)oc1C (as salt: methanesulfonate) [Example 228, 3-{4-[(4-{[(4-formyl-1-phenyl-1H-pyrazol-3-yl)oxy]methyl}-2-methoxyphenoxy)methyl]-5-methyl-1,3-oxazol-2-yl}phenyl methanesulfonate] | 146 to 148 °C
CCOC(=O)c1cn(Cc2ccccc2)nc1OCc1ccc(OCc2nc(-c3ccccc3)oc2C)c(OC)c1 [Example 1, ethyl 1-benzyl-3-({3-methoxy-4-[(5-methyl-2-phenyl-1,3-oxazol-4-yl)methoxy]benzyl}oxy)-1H-pyrazole-4-carboxylate] | 154 to 155 °C

Next, values leading:

melting point | SMILES
107 to 108 °C | COc1cc(COc2nn(-c3ccccc3)cc2/C=C/P(=O)(OC)OC)ccc1OCc1nc(-c2ccco2)oc1C
131 to 132 °C | CCOP(=O)(/C=C/c1cn(-c2ccccc2)nc1OCc1ccc(OCc2nc(-c3ccco3)oc2C)cc1)OCC
117 to 118 °C | CCOc1cc(COc2nn(-c3ccccc3)cc2/C=C/P(=O)(OCC)OCC)ccc1OCc1nc(-c2ccco2)oc1C
92 to 93 °C | CCOP(=O)(/C=C/c1cn(-c2ccccc2)nc1OCc1ccc(OCc2nc(-c3ccco3)oc2C)c(C(=O)OC)c1)OCC
169 to 170 °C | CCOP(=O)(/C=C/c1cn(-c2ccccc2)nc1OCc1ccc(OCc2nc(-c3ccco3)oc2C)c(C(=O)O)c1)OCC
134 to 135 °C | CCOP(=O)(/C=C/c1cn(-c2ccccc2)nc1OCc1ccc(OCc2nc(-c3ccco3)oc2C)nc1)OCC
147 to 149 °C | CCOP(=O)(OCC)/C(O)=C/c1cn(-c2ccccc2)nc1OCc1ccc(OCc2nc(-c3ccco3)oc2C)c(OC)c1
143 to 144 °C | CCOP(=O)(/C=C/C=C/c1cn(-c2ccccc2)nc1OCc1ccc(OCc2nc(-c3ccco3)oc2C)c(OC)c1)OCC
194 to 195 °C | CCOP(=O)(/C=C/c1cn(-c2ccccc2)nc1OCc1ccc(OCc2nc(-c3ccc(C(=O)O)cc3)oc2C)c(OC)c1)OCC
96 to 97 °C | CCOP(=O)(/C=C/c1cn(-c2ccccc2)nc1OCc1ccc(OCc2coc(-c3ccco3)n2)c(OC)c1)OCC
128 to 129 °C | CCOP(=O)(/C=C/c1cn(-c2ccccc2)nc1OCc1ccc(OCc2nc(-c3cccnc3)oc2C)c(OC)c1)OCC
127 to 128 °C | CCOP(=O)(/C=C/c1cn(-c2ccccc2)nc1OCc1ccc(OCc2nc(-c3cccc(O)c3)oc2C)c(OC)c1)OCC
153 to 155 °C | CCOP(=O)(/C=C/c1cn(-c2ccccc2)nc1OCc1ccc(OCc2nc(-c3cccc(C(=O)O)c3)oc2C)cc1)OCC
165 to 166 °C | CCOP(=O)(/C=C/c1cn(-c2ccccc2)nc1OCc1ccc(OCc2nc(-c3ccc(C(=O)O)s3)oc2C)c(OC)c1)OCC
158 to 159 °C | CCOP(=O)(/C=C\c1cn(-c2ccccc2)nc1OCc1ccc(OCc2nc(-c3cccc(C(=O)O)c3)oc2C)c(OC)c1)OCC
